Patent publication US20240425470A1, “S[…] AMINE MODULATORS OF MONOAMINERGIC TRANSPORTERS” (ATAI Life Sciences AG, priority 2023, published 2024)

Legend:
Format in all cases: cell-based
[1] = biological target: Norepinephrine transporter (NET) (Homo sapiens (Human), UniProt P23975); assay: Norepinephrine transporter (NET) uptake inhibition, [3H]-Norepinephrine uptake in HEK cells; settings: HEK cells expressing recombinant NET; [3H]-Norepinephrine 20 nM
Experimental: (§1) Norepinephrine transporter (NET) Uptake Inhibition: Compound activity was assessed using a convenient in vitro assay. Briefly, HEK cells expressing recombinant NET were plated at 50,000 cells/well on a 96 well plate pre-coated with Matrigel one day prior to the experiment. Culture medium (DMEM/FBS) was removed and 30 μl of assay buffer (Tris-HCl 50 mM, EDTA 4 mM, BDA 0.1%) with the desired concentration of test compound was added. The plate was incubated at 37° C. for 15 minutes. Assay buffer (30 μl) containing the same concentration of compound diluted in [3H]-Norepinephrine uptake buffer (final concentration 20 nM) was added to each well and the plate was incubated at 37° C. for 5 minutes. The reaction mixture was removed, and the cells were washed with 100 μl ice-cold assay buffer twice. Lysis buffer (50 μl) was added to the cells followed by a 5 minute incubation with gentle shaking at room temperature. The lysate was transferred to a 96 well isoplate. Optiphase supermix (100 μl) was added to each well with complete mixing. Radioactivity was counted with Microbeta Counter and reported as CPM. Desipramine was used as a control to measure non-specific uptake and for data normalization. Percent inhibition of [3H]-Norepinephrine uptake calculations: 100×(1−(CPMtest sample−CPMnon-specific uptake)/(CPMMAX−CPMMIN)).

[2] = biological target: Dopamine transporter (DAT) (Homo sapiens (Human), UniProt Q01959); assay: Dopamine transporter (DAT) uptake inhibition, [3H]-dopamine uptake in HEK cells; settings: HEK cells expressing recombinant DAT; [3H]-dopamine 20 nM
Experimental: as §1, with “Dopamine transporter (DAT)” for “Norepinephrine transporter (NET)”, “Dopamine transporter (DAT) Uptake Inhibition:” for “Norepinephrine transporter (NET) Uptake Inhibition:”, “expressing recombinant DAT were plated” for “expressing recombinant NET were plated”, “diluted in [3H]-Dihydroxyphenylethylamine (dopamine) uptake buffer” for “diluted in [3H]-Norepinephrine uptake buffer”, “as CPM. Nomifensine was used” for “as CPM. Desipramine was used”, “inhibition of [3H]-Dopamine uptake calculations:” for “inhibition of [3H]-Norepinephrine uptake calculations:”

[3] = biological target: Serotonin transporter (SERT) (Homo sapiens (Human), UniProt P31645); assay: Serotonin transporter (SERT) uptake inhibition, [3H]-Serotonin uptake in HEK cells; settings: HEK cells expressing recombinant SERT, [3H]-Serotonin 10 nM; for inhibition at 10 µM / inhibition at 100 µM: HEK293; for inhibition at 10 µM: 10 μM test compound; for inhibition at 100 µM: 100 μM test compound
Experimental: Serotonin transporter (SERT) Uptake Inhibition: Compound activity was assessed using an in vitro assay. Briefly, HEK cells expressing recombinant SERT were plated at 50,000 cells/well on a 96 well plate pre-coated with Matrigel one day prior to the experiment. Culture medium (DMEM/FBS) was removed from each well, and 30 μl of assay buffer (Tris-HCl 50 mM, EDTA 4 mM, BDA 0.1%) with the desired concentration of test compound was added. The plate was incubated at 37° C. for 15 minutes. Assay buffer (30 μl) containing the same concentration of compound diluted in [3H]-Serotonin uptake buffer (final concentration 10 nM) was added to each well and the plate was incubated at 37° C. for 5 minutes. The reaction mixture was removed, and the cells were washed (2×) with 100 μl ice-cold assay buffer. Lysis buffer (50 μl) was added to the cells followed by a 5 minute incubation with gentle shaking at room temperature. The lysate was transferred to a 96 well isoplate. Optiphase supermix (100 μl) was added to each well and was thoroughly mixed. Radioactivity was counted with Microbeta Counter and reported as counts per minute (CPM). Fluoxetine was used as a control to measure non-specific uptake and for data normalization. Percent inhibition of [3H]-Serotonin uptake is based on the calculation: 100×(1−(CPMtest sample−CPMnon-specific uptake)/(CPMMAX−CPMMIN)).

CC(N)Cc1ccc2occ(F)c2c1 (stereo not drawn) [Compound 1, 1-(3-fluorobenzofuran-5-yl)propan-2-amine]
IC50 [1]: 4.73 µM
IC50 [2]: 15.6 µM
inhibition at 10 µM [3]: 72.7%
inhibition at 100 µM [3]: 97.9%
IC50 [3]: 6.75 µM

CNC(C)Cc1ccc2occ(F)c2c1 (stereo not drawn) [Compound 2, 1-(3-fluorobenzofuran-5-yl)-N-methylpropan-2-amine]
IC50 [1]: 5.02 µM
IC50 [2]: 9.59 µM
inhibition at 10 µM [3]: 64.7%
inhibition at 100 µM [3]: 99%
IC50 [3]: 5.72 µM

CNC(C)Cc1ccc2c(c1)OCO2 (stereo not drawn) [MDMA, 3,4-Methylenedioxymethamphetamine, reference compound]
IC50 [1]: 1.42 µM
IC50 [2]: 5.25 µM
inhibition at 10 µM [3]: 53.3%
inhibition at 100 µM [3]: 98%
IC50 [3]: 3.35 µM
